In BigSolDB 2.1:

Br.Cc1ccc(Sc2ccccc2N2CCNCC2)c(C)c1
solubility (mole fraction) (in 2-butanone, 283.15 K): 6.2e-05 | solubility (mole fraction) (in 2-butanone, 288.15 K): 8.4e-05 | solubility (mole fraction) (in 2-butanone, 293.15 K): 0.000136 | solubility (mole fraction) (in 2-butanone, 298.15 K): 0.000163 | solubility (mole fraction) (in 2-butanone, 303.15 K): 0.00021 | solubility (mole fraction) (in 2-butanone, 308.15 K): 0.000267 | solubility (mole fraction) (in 2-butanone, 313.15 K): 0.000311 | solubility (mole fraction) (in 2-butanone, 318.15 K): 0.000338 | solubility (mole fraction) (in ethanol, 283.15 K): 0.00123 | solubility (mole fraction) (in ethanol, 288.15 K): 0.00138 | solubility (mole fraction) (in ethanol, 293.15 K): 0.0015 | solubility (mole fraction) (in ethanol, 298.15 K): 0.00162 | solubility (mole fraction) (in ethanol, 303.15 K): 0.00199 | solubility (mole fraction) (in ethanol, 308.15 K): 0.00269 | solubility (mole fraction) (in ethanol, 313.15 K): 0.00297 | solubility (mole fraction) (in ethanol, 318.15 K): 0.00341 | solubility (mole fraction) (in n-butanol, 283.15 K): 0.000582 | solubility (mole fraction) (in n-butanol, 288.15 K): 0.000751 | solubility (mole fraction) (in n-butanol, 293.15 K): 0.00086 | solubility (mole fraction) (in n-butanol, 298.15 K): 0.00121 | solubility (mole fraction) (in n-butanol, 303.15 K): 0.0017 | solubility (mole fraction) (in n-butanol, 308.15 K): 0.00202 | solubility (mole fraction) (in n-butanol, 313.15 K): 0.0023 | solubility (mole fraction) (in n-butanol, 318.15 K): 0.00271 | solubility (mole fraction) (in n-propanol, 283.15 K): 0.000934 | solubility (mole fraction) (in n-propanol, 288.15 K): 0.00101 | solubility (mole fraction) (in n-propanol, 293.15 K): 0.00115 | solubility (mole fraction) (in n-propanol, 298.15 K): 0.00132 | solubility (mole fraction) (in n-propanol, 303.15 K): 0.00178 | solubility (mole fraction) (in n-propanol, 308.15 K): 0.00214 | solubility (mole fraction) (in n-propanol, 313.15 K): 0.00245 | solubility (mole fraction) (in n-propanol, 318.15 K): 0.00295
